From patent publication US20250382332A1, “NOVEL ALPHA-FACTOR BASED PEPTIDES WITH ANTIFUNGAL ACTIVITY” (INVAIO SCIENCES, INC., priority 2024, published 2025)
Peptide text beside a SMILES is read from it.

Tested on: Botrytis cinerea (B05.10)
Experiment: Resazurin antifungal assay of 180 alpha-factor peptide variants towards Botrytis (Example 2)
Format: cell-based
Set-up: key to active against Botrytis at 15 μM / active against Botrytis at 10 μM: Peptides that showed greater than 90% inhibition were considered active against Botrytis
Details: for Inhibition at 10 μM / Inhibition at 15 μM / Inhibition at 20 μM / Inhibition at 50 μM / Inhibition at 100 μM: % inhibition of fungal growth, Botrytis conidia, resazurin; for Inhibition at 10 μM: peptide 10 μM; for Inhibition at 15 μM / active against Botrytis at 15 μM: peptide 15 μM; for Inhibition at 20 μM: peptide 20 μM; for Inhibition at 50 μM: peptide 50 μM; for Inhibition at 100 μM: peptide 100 μM
Experimental: The antifungal activity of 180 alpha-factor peptide variants towards Botrytis was tested. Experimental design:
Peptides corresponding to SEQ ID NO: 1-180 were chemically synthesized using the solid-phase synthesis method and resuspended in water to a stock solution of 1 mM. The stock solution was aliquoted in cryovials and stored at −80° C.
The Botrytis cinerea culture (B05.10) isolate was acquired from the Centraalbureau voor Schimmelcultures, the Netherlands. The Botrytis fungus was propagated on 0.5% V8 agar plates (200 ml V8 Juice, 3 g CaCO3, 15 g agar, 800-ml millipore water) at 20° C., in a 12 h photoperiod for 21 days.
Fungal conidia were harvested by scraping a Botrytis plate flooded with 1 ml water with 0.1% Tween 80 solution. Conidia were then collected in a 50 ml falcon tube by passing the solution through a 40 micron filter. The solution was then centrifuged at 6000 rpm and the pellet was resuspended in 1 ml of 20% glycerol. The conidia concentration of the resulting solution was counted using a hemocytometer. The stock was diluted to […] using 20% glycerol and frozen in 100 μl aliquots in −80° C. until further use.
Peptides were tested for activity against Botrytis, using the resazurin assay. For this, fungal stock conidia was first diluted to 5000 conidia/well. 50 μl of the spore suspension was added to each well of the sterile 96-well clear bottom testing plate and mixed with 50 μl of peptide solutions to a final concentration of 100, 50, 20, 15 and 10 μM. The plate was incubated for 24 h at 20° C. After 24 h, 10 μl of resazurin dye was added to the microtiter plate and incubated again for […]. Fluorescence was measured at 570/620 nm after 4 h of incubation with resazurin.
Growth inhibition was calculated by subtracting the fluorescence values of conidia only wells from sample wells and depicted as % inhibition of fungal growth. Four technical replicates were used for all treatments.

SMILES | Inhibition at 10 μM [%] | Inhibition at 15 μM [%] | Inhibition at 20 μM [%] | Inhibition at 50 μM [%] | Inhibition at 100 μM [%] | active against Botrytis at 15 μM
CSCC[C@H](NC(=O)[C@@H]1CCCN1C(=O)[C@H](CCC(N)=O)NC(=O)CNC(=O)[C@@H]1CCCN1C(=O)[C@H](CCCCN)NC(=O)[C@H](Cc1ccccc1)NC(=O)[C@H](CCCCN)NC(=O)[C@H](CC(C)C)NC(=O)[C@H](Cc1c[nH]c2ccccc12)NC(=O)[C@H](Cc1c[nH]cn1)NC(=O)[C@@H](N)CCCCN)C(=O)N[C@@H](Cc1ccc(O)cc1)C(=O)O [compound 13] (H-KHWLKFKPGQPMY-OH; N-terminus and C-terminus assumed) | <90 | 100 | 100 | 100 | 100 | active
CSCC[C@H](NC(=O)[C@@H]1CCCN1C(=O)[C@H](CCC(N)=O)NC(=O)CNC(=O)[C@@H]1CCCN1C(=O)[C@H](Cc1c[nH]c2ccccc12)NC(=O)[C@H](CC(C)C)NC(=O)[C@H](CCCCN)NC(=O)[C@H](CC(C)C)NC(=O)[C@H](Cc1c[nH]c2ccccc12)NC(=O)[C@H](Cc1c[nH]cn1)NC(=O)[C@@H](N)CCCCN)C(=O)N[C@@H](Cc1ccc(O)cc1)C(=O)O [compound 14] (H-KHWLKLWPGQPMY-OH; N-terminus and C-terminus assumed) | <90 |  | <90 | 100 | 100 | 
CC[C@H](C)[C@H](NC(=O)[C@H](CCCCN)NC(=O)[C@H](CC(C)C)NC(=O)[C@@H](NC(=O)[C@H](Cc1c[nH]cn1)NC(=O)[C@@H](N)Cc1c[nH]c2ccccc12)[C@@H](C)O)C(=O)N[C@@H](CCCCN)C(=O)N[C@@H](CCCCN)C(=O)NCC(=O)N[C@@H](CCC(=O)O)C(=O)N1CCC[C@H]1C(=O)N[C@@H](CCSC)C(=O)N[C@@H](Cc1ccc(O)cc1)C(=O)O [compound 15] (H-WHTLKIKKGEPMY-OH; N-terminus and C-terminus assumed) | <90 |  | <90 | 100 | 100 | 
CSCC[C@H](NC(=O)CNC(=O)[C@H](CCC(N)=O)NC(=O)CNC(=O)[C@@H](NC(=O)[C@H](CCCCN)NC(=O)[C@H](Cc1ccccc1)NC(=O)[C@@H](NC(=O)[C@H](CC(C)C)NC(=O)[C@H](Cc1c[nH]c2ccccc12)NC(=O)[C@H](Cc1c[nH]cn1)NC(=O)[C@@H](N)Cc1c[nH]c2ccccc12)[C@@H](C)O)[C@@H](C)O)C(=O)N[C@@H](Cc1ccc(O)cc1)C(=O)O [compound 16] (H-WHWLTFKTGQGMY-OH; N-terminus and C-terminus assumed) | <90 |  | <90 | 100 | 100 | 
CSCC[C@H](NC(=O)[C@@H]1CCCN1C(=O)[C@H](CCC(N)=O)NC(=O)CNC(=O)[C@@H]1CCCN1C(=O)[C@H](Cc1c[nH]c2ccccc12)NC(=O)[C@H](CC(C)C)NC(=O)[C@H](CCCCN)NC(=O)[C@H](CC(C)C)NC(=O)[C@H](Cc1ccccc1)NC(=O)[C@H](Cc1c[nH]cn1)NC(=O)[C@@H](N)CCCCN)C(=O)N[C@@H](Cc1ccc(O)cc1)C(=O)O [compound 17] (H-KHFLKLWPGQPMY-OH; N-terminus and C-terminus assumed) | <90 |  | <90 | 100 | 100 | 
CSCC[C@H](NC(=O)[C@@H]1CCCN1C(=O)[C@H](CCC(N)=O)NC(=O)CNC(=O)[C@@H]1CCCN1C(=O)[C@H](CCCCN)NC(=O)[C@H](Cc1ccccc1)NC(=O)[C@H](CCCNC(=N)N)NC(=O)[C@H](CC(C)C)NC(=O)[C@H](Cc1ccccc1)NC(=O)[C@H](Cc1c[nH]cn1)NC(=O)[C@@H](N)CCCCN)C(=O)N[C@@H](Cc1ccc(O)cc1)C(=O)O [compound 18] (H-KHFLRFKPGQPMY-OH; N-terminus and C-terminus assumed) | <90 | 94.03 | 99.67 | 100 | 100 | active
CC[C@H](C)[C@H](NC(=O)[C@H](Cc1c[nH]c2ccccc12)NC(=O)[C@H](CCCCN)NC(=O)[C@@H]1CCCN1)C(=O)N[C@@H](CCCNC(=N)N)C(=O)N[C@@H](CC(C)C)C(=O)N[C@@H](CCCCN)C(=O)N1CCC[C@H]1C(=O)NCC(=O)N[C@@H](CCC(N)=O)C(=O)N1CCC[C@H]1C(=O)N[C@@H](CCSC)C(=O)N[C@@H](Cc1ccc(O)cc1)C(=O)O [compound 19] (H-PKWIRLKPGQPMY-OH; N-terminus and C-terminus assumed) | <90 |  | <90 | 100 | 100 | 
CSCC[C@H](NC(=O)[C@@H]1CCCN1C(=O)[C@H](CCC(N)=O)NC(=O)CNC(=O)[C@@H]1CCCN1C(=O)[C@H](CCCCN)NC(=O)[C@H](Cc1ccccc1)NC(=O)[C@H](CO)NC(=O)[C@H](CC(C)C)NC(=O)[C@H](Cc1c[nH]c2ccccc12)NC(=O)[C@H](Cc1c[nH]cn1)NC(=O)[C@@H](N)CCCCN)C(=O)N[C@@H](Cc1ccc(O)cc1)C(=O)O [compound 20] (H-KHWLSFKPGQPMY-OH; N-terminus and C-terminus assumed) | <90 |  | <90 | 100 | 100 | 
CSCC[C@H](NC(=O)[C@H](CC(C)C)NC(=O)[C@H](CCC(N)=O)NC(=O)[C@@H](NC(=O)[C@H](Cc1c[nH]c2ccccc12)NC(=O)[C@H](Cc1c[nH]cn1)NC(=O)[C@@H](N)CCCCN)C(C)C)C(=O)N[C@@H](CCCCN)C(=O)NCC(=O)N[C@@H](CCC(N)=O)C(=O)N1CCC[C@H]1C(=O)N[C@@H](CCSC)C(=O)N[C@@H](Cc1ccc(O)cc1)C(=O)O [compound 21] (H-KHWVQLMKGQPMY-OH; N-terminus and C-terminus assumed) | <90 |  | <90 | 100 | 100 | 
CSCC[C@H](NC(=O)[C@H](CCCCN)NC(=O)[C@H](Cc1ccccc1)NC(=O)[C@H](CCC(N)=O)NC(=O)[C@@H](NC(=O)[C@H](CC(C)C)NC(=O)[C@H](Cc1c[nH]cn1)NC(=O)[C@@H](N)CCCCN)C(C)C)C(=O)NCC(=O)N[C@@H](CCC(N)=O)C(=O)N1CCC[C@H]1C(=O)N[C@@H](CCSC)C(=O)N[C@@H](Cc1ccc(O)cc1)C(=O)O [compound 22] (H-KHLVQFKMGQPMY-OH; N-terminus and C-terminus assumed) | <90 |  | <90 | 100 | 100 | 
